{"source": "patent US20180064829A1", "about": "“FLUORESCENT BISPHOSPHONATE ANALOGS” (University of Southern California, priority 2015, published 2018)", "key": {"[1]": {"tested_on": "unprenylated Rap1A (uRap1A)", "experiment": "Prenylation assay: Western blot for unprenylated Rap1A in J774.2 macrophages", "assay_type": "cell-based, mouse", "conditions": "10 or 100 μM, 24 h, FIG. 5A-C"}, "[2]": {"conditions": "pH 7.2, 0.1M phosphate buffer; assumed the same as the corresponding fluorescent dye; cited from earlier work"}, "[3]": {"experiment": "UV-VIS absorption and fluorescence emission spectra", "assay_type": "physicochemical", "conditions": "0.1M phosphate buffer (1x PBS for 7d5); ± 1 nm error"}, "[4]": {"tested_on": "bone resorption", "conditions": "rat model in vivo, ref. [15a]; cited from earlier work"}, "[5]": {"experiment": "pKa and protonation status of the heterocyclic nitrogen", "assay_type": "physicochemical", "conditions": "pH 6.0; calculated by Henderson-Hasselbalch equation", "from_the_text": "The nucleophilicity and Lewis basicity of the nitrogen atom of the three heterocyclic N-BPs studied in this report vary, and these properties appear to be the major determinants of their conjugation reactivity. Thus, the ‘magic linker’ methodology for RIS required modification for ZOL (1d), MIN (1e), and their related analogues (1f). […] The protonation status of the heteroatom at different pH is also critical to the reactivity. […] Under such conditions, more than 50% (˜71.3% calculated) of the nitrogen of RIS will be deprotonated, and able to attack the epoxide ring nucleophilically. However, at pH 6.0, only 18% of the nitrogen of ZOL (22% for MIN) is deprotonated, thus the reactions were very slow (2d) at pH 6.0. At pH 7.0-7.5, reaction was more rapid, but the regioselectivity (N-alkylation vs. O-alkylation) for 1d, 1e, 1f was not as good as for RIS and its analogues (1a, 1b, 1c); 10-20% of side products could be observed, which were confirmed by HPLC, NMR and MS to be the products of N,O(P)-dialkylation (O-alkylation occurs between the phosphonate/carboxylate group of the drug and the epoxide). The reaction rate of MinPC (1f)-epoxide (5) coupling was even slower than ZOL under the same reaction conditions (same reactant ratio, pH 7.5, 40-45° C.), which might be due to a steric effect from the large heterocycle. In addition, the percent of side products was higher and O-alkylation products were also observed in the reaction mixture.\nThe following publications are incorporated by reference herein in their entirety: • [1] a) R. G. G. Russell, N. B. Watts, F. H. Ebetino, M. J. Rogers, Osteoporos. Int. 2008, 19, 733-759; b) F. Ebetino, A. Hogan, S. Sun, M. Tsoumpra, X. Duan, J. Triffitt, A. Kwaasi, J. Dunford, B. Barnett, U. Oppermann, M. Lundy, A. Boyde, B. Kashemirov, C. McKenna, R. Russell, Bone 2011, 49 20-33. • [2] a) I. Reid, M. Bolland, A. Grey, Bone 2007, 41, 318-320; b) A. Siddiqi, A. Payne, S. Zafar, Oral Surg. Oral Med. Oral Pathol. Oral Radiol. Endod. […]"}, "[6]": {"conditions": "parent compounds, ref. [23]; cited from earlier work"}, "[7]": {"conditions": "RIS; not covered by the MarvinSketch note; cited from earlier work"}}, "data": [{"smiles": "O=C(NCC(O)C[n+]1ccn(CC(O)(P(=O)(O)O)P(=O)(O)O)c1)c1ccc(-c2c3ccc(=O)cc-3oc3cc(O)ccc23)c(C(=O)O)c1", "note": "(centres unmarked) [Compound 5-FAM-ZOL, 3-(3-(3-carboxy-4-(6-hydroxy-3-oxo-3H-xanthen-9-yl)benzamido)-2-hydroxypropyl)-1-(2-hydroxy-2,2-diphosphonoethyl)-1H-imidazol-3-ium]", "values": [{"measurement": "accumulation of unprenylated Rap1A (anti-prenylation activity)", "setting": "[1]", "value": "retain some activity, although their potencies are weaker than native ZOL"}, {"measurement": "Extinction coefficient", "setting": "[2]", "value": "73,000 (pH 7.2) M^−1cm^−1"}, {"measurement": "Maximum absorption wavelength (λmax (abs), nm)", "setting": "[3]", "value": 493, "unit": "nm"}, {"measurement": "Maximum emission wavelength (λmax (em), nm)", "setting": "[3]", "value": 521, "unit": "nm"}, {"measurement": "Anti-resorptive activity", "setting": "[4]", "value": "demonstrated"}]}, {"smiles": "O=P(O)(O)C(O)(Cc1cccnc1)P(=O)(O)O", "note": "[RIS, (1-hydroxy-2-pyridin-3-ylethane-1,1-diyl)bis(phosphonic acid)]", "values": [{"measurement": "fraction of the heterocyclic nitrogen deprotonated", "setting": "[5]", "value": "~71.3", "unit": "%"}, {"measurement": "rank order of mineral binding affinity", "setting": "[6]", "value": "RIS>dRIS>RISPC"}, {"measurement": "pKa of the heterocyclic nitrogen", "setting": "[7]", "value": 5.67}]}]}
